Measured values taken from patent publication US9345677B2, “Compositions, methods and kits relating to HER-2 cleavage” (Incyte Corporation, priority 2003, dated 2016).

What was measured:
BT474 cells = assay: Cell proliferation assay (cell counting, BrdU incorporation); format: cell-based, human; settings: Her-2 overexpressing BT474 cells
Protocol: (§1) Proliferation assays were routinely performed with two protocols: cell counting and BrdU incorporation assay. For cell counting, cells (1×10^5) were seeded in each well of 12 well plates and cultured overnight. Then, cells were treated for 6 days with drugs and compounds as indicated in individual experiments. Culture media were replaced with fresh media containing the same concentrations of drugs and compounds after the first 3 days of treatment. Viable cells were counted with hemacytometers immediately after trypan blue staining.
The BrdU incorporation assay was performed using a colorimetric Cell Proliferation ELISA kit per manufacturer's instruction (#1647229, Roche Molecular Biochemicals), measuring DNA synthesis in proliferating cells. Briefly, cells (5−10×10^3) were seeded in each well of 96 well plates and cultured overnight. […] Finally, 100 μl/well of substrate solution was added and the results were obtained using a microplate reader (Spectra Max PLUS, Molecular Devices) during color development. Multiple readings at various time points were obtained and results in the linear range of the assay were obtained. […]
After varying periods of cell culture (2-6 days), the cell cultures were harvested and cell growth was assessed by cell count and BRdU incorporation using standard protocols.

Her-2 sheddase = assay: Her-2 ECD ELISA of BT474 culture supernatants (Her-2 sheddase inhibition); format: cell-based, human
Protocol: BT474 cells were seeded in 100 μL of RPMI medium containing 10% FCS+10 μg/ml insulin in 96 well plates at 2×10^4 cells/well. The cells were incubated overnight at 37° C. The following morning, the media was removed and 100 μL of fresh media with or without compound was added back. The cells were incubated for about 72 hours at 37° C. After about 72 hours, the supernatants were removed. The samples were diluted 1:10 and analyzed using a commercially available Her-2 ELISA kit per manufacturer's instructions (Oncogene Research, catalog #QIA 10).
These inhibitors were added, at varying concentrations, to cultures of BT474 cells, a Her-2 overexpressing breast cancer cell line known to enzymatically process cell surface Her-2 (p185) and release the extracellular domain (ECD) into the culture supernatant, i.e., shedding of ECD. After 72 hours, cell culture supernatants were harvested and assayed for Her-2 ECD content using an ELISA assay.

MMP12 = MMP12 (Homo sapiens, UniProt P39900); assay: MMP12 fluorogenic peptide biochemical assay
Description: Source of enzymes for biochemical assays: Except for ADAM17 and MT1-MMP, all recombinant human MMPs and ADAMs were obtained from R&D Systems (Minneapolis, Minn.). […] MT1-MMP was obtained from US Biological (Swampscott, Mass.) with a catalog number of M2429. Porcine ADAM17 was purified in house from porcine spleen.
Substrates for biochemical assays: Fluorogenic Peptide substrate, (7-methoxycoumarin-4-yl)acetyl-Pro-Leu-Gly-Leu-(3-[2,4-dinitrophenyl]-L-2,3-diaminopropionyl)-Ala-Arg-NH2 (SEQ ID NO: 46), was obtained from R&D Systems (Minneapolis, Minn.) with a catalog number of ES001. It was used as substrate for MMP1, MMP2, MMP7, MMP8, MMP9, MMP12, MMP13, and MT1-MMP. Fluorogenic Peptide substrate, (7-methoxycoumarin-4-yl)acetyl-Arg-Pro-Lys-Pro-Val-Glu-Nva-Trp-Arg-Lys(2,4-dinitrophenyl)-NH2 (SEQ ID NO: 47), was obtained from R&D Systems with a catalog number of ES002. It was used as substrate for MMP3 and MMP10. […]
In general, 5 mM compound stock was prepared in DMSO. […] The plate was read on a plate reader with excitation of 320 nm and emission of 405 nm. Percentage of inhibition was calculated for each concentration and IC50 value was generated from curve fitting. […]

MCF7 cells = assay: Cell proliferation assay (cell counting, BrdU incorporation); format: cell-based, human; settings: MCF7 cells which do not overexpress Her-2
Protocol: as §1
The BrdU incorporation assay was performed using a colorimetric Cell Proliferation ELISA kit per manufacturer's instruction (#1647229, Roche Molecular Biochemicals), measuring DNA synthesis in proliferating cells. Briefly, cells (5−10×10^3) were seeded in each well of 96 well plates and cultured overnight. The next day, culture media were replaced with fresh media containing drugs and compounds as indicated for individual experiments. […] Finally, 100 μl/well of substrate solution was added and the results were obtained using a microplate reader (Spectra Max PLUS, Molecular Devices) during color development. Multiple readings at various time points were obtained and results in the linear range of the assay were obtained. […]

Sequence of MMP12 (P39900 106-470): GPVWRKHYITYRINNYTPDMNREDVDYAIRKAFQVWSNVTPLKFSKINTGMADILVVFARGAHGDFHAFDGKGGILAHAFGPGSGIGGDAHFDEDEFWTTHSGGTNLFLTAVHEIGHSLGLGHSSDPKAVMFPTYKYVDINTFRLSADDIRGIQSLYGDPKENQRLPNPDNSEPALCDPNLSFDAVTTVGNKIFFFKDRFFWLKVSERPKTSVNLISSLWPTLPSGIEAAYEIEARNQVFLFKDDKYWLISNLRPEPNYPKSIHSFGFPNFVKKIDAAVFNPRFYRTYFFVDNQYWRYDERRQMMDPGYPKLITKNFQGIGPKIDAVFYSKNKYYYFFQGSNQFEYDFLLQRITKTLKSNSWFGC

CN1CC2(CC2)C[C@H](C(=O)NO)[C@H]1C(=O)N1CCN(c2ccc(C(F)(F)F)cn2)CC1 [Compound 6]
effect on antiproliferative activity of a suboptimal dose of Herceptin (BT474 cells): does not enhance | Her-2 sheddase activity (Her-2 sheddase): inactive | IC50 (MMP12): 1.95 nM | effect on antiproliferative activity of a suboptimal dose of Herceptin (MCF7 cells): does not enhance
